Experimental data: the supplement of paper PMC10307832

Legend:
Assay in all cases: relative viability (nuclei count vs DMSO), 5 days (fraction); higher = more cells survive
Cediranib + Luminespib = compound: COc1cc2c(Oc3ccc4[nH]c(C)cc4c3F)ncnc2cc1OCCCN1CCCC1 [Cediranib] + CCNC(=O)c1noc(-c2cc(C(C)C)c(O)cc2O)c1-c1ccc(CN2CCOCC2)cc1 [Luminespib] (partner 0.01 µM)
Summary of the method: (§1)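 Relative viability equals treated-well nuclei counts divided by vehicle-well nuclei counts. Counts came from 4× images of lung cancer cell lines grown in 1536-well plates for 5 days after pin-tool dosing on the day after seeding. Dosing used one drug alone or a fixed anchor-drug dose plus five library-drug doses (not always all listed) in √10 steps, and values are medians of duplicate plates.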

[1] = compound: O=C(C[C@H]1NCCC[C@@H]1O)Cn1cnc2cc(Br)c(Cl)cc2c1=O (racemic) [Halofuginone] + O=C(CCCCCCC(=O)Nc1ccccc1)NO [Vorinostat] (partner 1 µM)
Summary of the method: as §1

Decitabine + Bortezomib = compound: Nc1ncn([C@H]2C[C@H](O)[C@@H](CO)O2)c(=O)n1 [Decitabine] + CC(C)C[C@H](NC(=O)[C@H](Cc1ccccc1)NC(=O)c1cnccn1)B(O)O [Bortezomib] (partner 0.002 µM)
Summary of the method: as §1

Decitabine + Luminespib = compound: Nc1ncn([C@H]2C[C@H](O)[C@@H](CO)O2)c(=O)n1 [Decitabine] + CCNC(=O)c1noc(-c2cc(C(C)C)c(O)cc2O)c1-c1ccc(CN2CCOCC2)cc1 [Luminespib] (partner 0.01 µM)
Summary of the method: as §1

Cell Line | relative viability (Cediranib + Luminespib; first compound 0.04 µM) | relative viability (Cediranib + Luminespib; first compound 0.1265 µM) | relative viability (Cediranib + Luminespib; first compound 0.4 µM) | relative viability (Cediranib + Luminespib; first compound 1.265 µM) | relative viability (Cediranib + Luminespib; first compound 4 µM) | relative viability ([1]; first compound 0.001 µM) | relative viability ([1]; first compound 0.003162 µM) | relative viability ([1]; first compound 0.01 µM) | relative viability ([1]; first compound 0.03162 µM) | relative viability ([1]; first compound 0.1 µM) | relative viability (Decitabine + Bortezomib; first compound 0.04 µM) | relative viability (Decitabine + Bortezomib; first compound 0.1265 µM) | relative viability (Decitabine + Bortezomib; first compound 0.4 µM) | relative viability (Decitabine + Bortezomib; first compound 1.265 µM) | relative viability (Decitabine + Bortezomib; first compound 4 µM) | relative viability (Decitabine + Luminespib; first compound 0.04 µM) | relative viability (Decitabine + Luminespib; first compound 0.1265 µM) | relative viability (Decitabine + Luminespib; first compound 0.4 µM) | relative viability (Decitabine + Luminespib; first compound 4 µM) | relative viability (Decitabine + Luminespib; first compound 1.265 µM)
201T | 1.2 | 1.34 | 1 | 1.03 | 1.03 | 1.01 | 0.971 | 0.964 | 0.909 | 0.776 | 1.11 | 1.09 | 1.15 | 1 | 1.03 | 0.984 | 0.987 | 1.07 | 0.75 | 
A-427 | 1.25 |  | 0.84 | 0.906 | 0.928 | 0.89 | 0.891 | 0.828 | 0.827 | 0.807 | 0.769 | 0.571 | 0.247 | 0.271 | 0.242 | 0.65 | 0.466 | 0.303 | 0.227 | 0.262
Calu-6 |  |  |  |  |  |  |  |  |  |  | 0.853 | 0.67 | 0.43 | 0.373 | 0.321 |  |  |  |  | 
EBC-1 |  |  |  |  |  |  |  |  |  |  | 0.395 | 0.406 | 0.29 | 0.268 | 0.257 |  |  |  |  | 
HCC-78 |  |  |  |  |  | 0.675 | 0.459 | 0.391 | 0.426 | 0.367 | 0.52 | 0.517 | 0.435 | 0.385 | 0.328 |  |  |  |  | 
HCC-366 |  |  |  |  |  | 0.446 | 0.347 | 0.319 | 0.233 | 0.0907 | 0.971 | 0.788 | 0.421 | 0.197 | 0.121 |  |  |  |  | 
IA-LM |  |  |  |  |  | 1.02 | 0.995 | 0.902 | 0.92 | 0.878 | 0.44 | 0.54 | 0.257 | 0.172 | 0.185 |  |  |  |  | 
LK-2 | 0.217 | 0.16 | 0.196 | 0.159 | 0.188 | 0.331 | 0.292 | 0.292 | 0.353 | 0.254 |  |  |  |  |  | 0.196 | 0.193 | 0.156 | 0.17 | 0.214
NCI-H358 | 0.257 | 0.426 | 0.381 | 0.328 | 0.364 | 0.79 | 0.702 | 0.634 | 0.233 | 0.109 |  |  |  |  |  | 0.073 | 0.206 | 0.247 | 0.1 | 0.199
NCI-H522 | 1.13 |  | 1.17 | 1.03 | 1.02 | 0.833 | 0.829 | 0.926 | 0.951 | 0.976 |  |  |  |  |  | 1.07 | 0.919 | 0.923 | 0.684 | 0.652
NCI-H1299 |  |  |  |  |  |  |  |  |  |  | 1.01 | 0.988 | 0.965 | 0.867 | 0.865 |  |  |  |  | 
NCI-H1395 | 0.787 | 0.569 | 0.734 | 0.754 | 0.535 | 0.741 | 0.682 | 0.656 | 0.603 | 0.49 |  |  |  |  |  | 0.626 | 0.661 | 0.568 | 0.438 | 0.432
NCI-H1563 | 0.513 | 0.456 | 0.541 | 0.559 | 0.601 |  |  |  |  |  | 0.801 | 1.02 | 1.16 | 0.987 | 0.908 | 0.564 | 0.508 | 0.428 | 0.495 | 0.545
NCI-H1623 | 0.528 |  | 0.425 | 0.457 | 0.526 |  |  |  |  |  |  |  |  |  |  | 0.51 | 0.475 | 0.504 | 0.434 | 0.427
NCI-H1648 |  |  |  |  |  | 0.624 | 0.488 | 0.522 | 0.415 | 0.61 |  |  |  |  |  |  |  |  |  | 
NCI-H1703 |  |  |  |  |  |  |  |  |  |  | 0.243 | 0.258 | 0.2 | 0.182 | 0.176 |  |  |  |  | 
NCI-H1792 | 0.429 | 0.644 | 0.479 | 0.538 | 0.508 |  |  |  |  |  | 0.927 | 0.99 | 0.923 | 0.444 | 0.521 | 0.565 | 0.446 | 0.465 | 0.311 | 0.428
NCI-H1793 | 0.182 | 0.176 | 0.224 |  | 0.201 | 0.898 | 0.672 | 0.664 | 0.846 | 0.497 |  |  |  |  |  | 0.154 | 0.212 | 0.19 | 0.213 | 0.176
NCI-H1944 | 0.767 | 0.796 | 0.741 | 0.72 | 0.963 | 0.565 | 0.536 | 0.519 | 0.477 | 0.513 |  |  |  |  |  | 0.643 | 0.645 | 0.633 | 0.369 | 0.389
NCI-H2170 | 0.654 | 0.704 | 0.666 | 0.547 | 0.848 | 0.853 | 0.831 | 0.799 | 0.825 | 0.802 |  |  |  |  |  | 0.645 | 0.641 | 0.488 | 0.253 | 0.286
NCI-H2342 | 0.858 | 0.801 | 0.919 | 0.704 | 0.82 | 0.649 | 0.743 | 0.725 | 0.715 | 0.737 |  |  |  |  |  | 0.765 | 0.737 | 0.804 | 0.434 | 0.537
SK-MES-1 | 0.797 | 0.869 | 0.9 | 0.833 | 0.86 | 1.16 | 1.09 | 0.997 | 0.949 | 0.183 |  |  |  |  |  | 0.566 | 0.575 | 0.331 | 0.232 | 0.288
SW 900 | 0.167 | 0.186 | 0.195 | 0.188 | 0.169 | 0.729 | 0.379 |  | 0.535 | 0.317 |  |  |  |  |  | 0.212 | 0.164 | 0.169 | 0.197 | 0.179
